Experiments:
[1] = Solubility in medium chain oil; assay type: physicochemical; settings: oil or lipid
[2] = Drug-forming properties of paclitaxel palmitate preparations (dose forms and preparation methods); assay type: physicochemical; settings: drug loading 3 mg/mL
Method: 300 mg paclitaxel palmitate, 3.5 g high-purity egg yolk lecithin (EPCS), and 0.3 g DSPE-PEG2000 were weighed out, added with 3 g propylene glycol, and dissolved at 65° C. to obtain an organic phase; 85 g water was weighed out, and dissolved by stirring and heated at 65° C. to obtain an aqueous phase. The organic phase was injected into the aqueous phase by stirring, and mixed to obtain a crude liposome, which was then placed in an extruder, and sequentially extruded through an extrusion film with a pore size of 0.4 μm, 0.2 μm, 0.1 μm, and 0.05 μm, and added with water to 100 ml. pH was adjusted to 4.5 with hydrochloric acid. The filter was sterilized by filtration through a 0.22 μm filter to obtain liposomal paclitaxel palmitate formulations.
0.3 g paclitaxel palmitate and 0.3 g (or 1.5 g, or 3 g, or 6 g, or 9 g) polyethylene glycol monomethyl ether-polylactic acid were weighed out and dissolved in an appropriate amount of acetonitrile. […]

In the case of `CC(=O)O[C@H]1C(=O)[C@@]2(C)[C@H]([C@H](OC(=O)c3ccccc3)[C@]3(O)C[C@H](OC(=O)[C@H](O)[C@@H](NC(=O)c4ccccc4)c4ccccc4)C(C)=C1C3(C)C)[C@]1(OC(C)=O)CO[C@@H]1C[C@@H]2O` [paclitaxel, Paclitaxel], the solubility [1] is reported as < 5000 µg/mL and the appearance [2] is reported as “completely clarified”.

Reference: US20190076357A1 (SHANGHAI WEI ER BIOPHARMACEUTICAL TECHNOLOGY CO., LTD., priority 2016, published 2019)
